Results: patent US9018208B2, “Heterocycles as potassium channel modulators” (Icagen Inc., priority 2007, dated 2015)
Like-named read-outs stand apart in the source and are kept apart here.

Assays:
[1] = tested on: SH-SY5Y M-currents (KCNQ2, KCNQ3 and KCNQ5); test: SH-SY5Y native cell line FLIPR assay (voltage-sensitive dye DiBAC); type: cell-based, mouse neuroblastoma, rat glioma hybrid cell line; details: SH-SY5Y native cell line, read-out: SH-SY5Y EC50
Procedure, shortened: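 Response is peak DiBAC fluorescence change, normalised to the maximum from a positive control agent, sampled every 30 s over 25 min. Before compound addition, SH-SY5Y cells differentiated with PGE1 plus isomethylbutylxanthine were dye-loaded for 1 h in EBSS with […] DiBAC.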

[2] = tested on: electroshock seizure, Male Wistar rats; test: In vivo rat assay for anti-convulsant activity (rat MES, electroshock seizure); details: for Rat MES activity: single dose screening, typically 10 mg/kg, animals protected from hind limb extension; for ED50: Rattus norvegicus, po
Experimental: Male Wistar rats were housed 4 per cage on a regular light/dark cycle (lights on 0600-1800) for one week prior to anti-convulsant testing. The apparatus used to induce electroshock seizure was obtained from Walhquist Instrument Co., Salt Lake City, Utah. The shock level was set at 150 mA and the duration at 0.2 seconds. A drop of 1% proparacaine solution was placed in each eye of a rat, the electrodes were placed over the eyes, and the shock was administered. Latency to hind limb extension was measured to the nearest 0.1 second.
The KCNQ opener was homogenized in either 0.5% carboxymethylcellulose in water or 0.5% methylcellulose in water) and administered orally through a steel 18-gauge rat gavage tube in a volume of 2 mL/kg of body weight. In the single dose screening assay, latency to seizure for the vehicle group and the KCNQ opener group were compared using t-test. Typically a dose of 10 mg/kg of the opener is used. However, openers can be run n a dose-response experiment where doses of 1, 3, 10 and 30 mg/Kg are used.
In the single dose screening assay, latency to seizure for the vehicle and the 10 mg/kg groups were compared using t-test. Latencies to seizure in the dose response studies were submitted to analysis of variance and all dose groups were compared to vehicle using Dunnett's method (JMP© ver 5.1, SAS). In all cases an effect was considered significant if p≦0.05.

Row | Compound | EC50 ([1]; FLIPR assay (Table 6)) [nM] | EC50 ([1]; FLIPR assay, Table 1) [nM] | Rat MES activity ([2]; oral) | also measured
1 | CC1(CC(=O)Nc2nc3ccc(F)cn3c2-c2ccc(C(F)(F)F)cc2)CCCC1 [Compound 180, N-(6-fluoro-3-(4-(trifluoromethyl)phenyl)imidazo[1,2-a]pyridin-2-yl)-2-(1-methylcyclopentyl)acetamide] | – | – | ++ (++ 4-6 animals protected) | EC50 ([1]; FLIPR assay, Table 2): < 500 nM
2 | Cc1ccc2nc(NC(=O)CC(C)C(F)(F)F)c(CC(C)(C)C)n2n1 (stereo not shown) [Compound 68, 4,4,4-trifluoro-3-methyl-N-(6-methyl-3-neopentylimidazo[1,2-b]pyridazin-2-yl)butanamide] | – | < 500 | +++ (+++ 7-8 animals protected) | –
3 | CC(C)(C)CCC(=O)Nc1nc2ccc(C(F)(F)F)cn2c1CC(C)(C)C [Compound 24, 4,4-dimethyl-N-(3-neopentyl-6-(trifluoromethyl)imidazo[1,2-a]pyridin-2-yl)pentanamide] | – | < 500 | + (+ 2-3 animals protected) | –
4 | CC(C)(C)CC(=O)Nc1nc2ccc(F)cn2c1-c1nccs1 [Compound 371, N-(6-fluoro-3-(thiazol-2-yl)imidazo[1,2-a]pyridin-2-yl)-3,3-dimethyl butanamide] | – | – | ++ (++ 4-6 animals protected) | EC50 ([1]; FLIPR assay (Table 3)): 500 to 3000 nM; ED50 ([2]; rat MES dose-response): 3.6 mg/kg
5 | N-(3-cyclobutyl-6-(trifluoromethyl)imidazo[1,2-b]pyridazin-2-yl)-4,4,4-trifluoro-3,3-dimethylbutanamide [Compound 438] | < 500 | – | +++ (+++ 7-8 animals protected) | –
6 | Cc1ccc2nc(NC(=O)CC(C)(C)C)c(-c3cccc(C(F)(F)F)c3)n2n1 [Compound 308, 3,3-dimethyl-N-(6-methyl-3-(3-(trifluoromethyl)phenyl)imidazo[1,2-b]pyridazin-2-yl)butan amide] | – | – | +++ (+++ 7-8 animals protected) | EC50 ([1]; FLIPR assay, Table 2): < 500 nM; ED50 ([2]; rat MES dose-response): 1.6 mg/kg
7 | CC(C)(C)CC(=O)Nc1nc2ccc(C(F)(F)F)cn2c1CC1CCCCC1 [Compound 32, N-(3-(cyclohexylmethyl)-6-(trifluoromethyl)imidazo[1,2-a]pyridin-2-yl)-3,3-dimethylbutanamide] | – | < 500 | + (+ 2-3 animals protected) | –
8 | O=C(Cc1ccccc1)Nc1nc2ccc(C(F)(F)F)cn2c1C1CCCCC1 [Compound 38, N-(3-cyclohexyl-6-(trifluoromethyl)imidazo[1,2-a]pyridin-2-yl)-2-phenylacetamide] | – | < 500 | ++ (++ 4-6 animals protected) | –
9 | CC(C)(C)CC(=O)Nc1nc2ccc(F)cn2c1-c1ccc(Cl)cn1 [Compound 363, N-(3-(5-chloropyridin-2-yl)-6-fluoroimidazo[1,2-a]pyridin-2-yl)-3,3-dimethylbutanamide] | – | – | ++ (++ 4-6 animals protected) | EC50 ([1]; FLIPR assay (Table 3)): < 500 nM
10 | CC(C)(C)Cc1c(NC(=O)Cc2ccccc2)nc2ccc(C(F)(F)F)cn12 [Compound 20, N-(3-neopentyl-6-(trifluoromethyl)imidazo[1,2-a]pyridin-2-yl)-2-phenylacetamide] | – | < 500 | + (+ 2-3 animals protected) | –
11 | C[C@H](CC(=O)Nc1nc2ccc(C(F)(F)F)cn2c1C1CC1)C(F)(F)F [Compound 89, (R)—N-(3-cyclopropyl-6-(trifluoromethyl)imidazo[1,2-a]pyridin-2-yl)-4,4,4-trifluoro-3-methylbutanamide] | – | 500 to 3000 | +++ (+++ 7-8 animals protected) | ED50 ([2]; rat MES dose-response): 5.8 mg/kg
12 | CC(CC(=O)Nc1nc2ccc(C(F)(F)F)cn2c1CC(C)(C)C)C(F)(F)F (stereo not shown) [Compound 23, 4,4,4-trifluoro-3-methyl-N-(3-neopentyl-6-(trifluoromethyl)imidazoyl)butanamide] | – | < 500 | + (+ 2-3 animals protected) | –
13 | CC(C)(C)CC(=O)Nc1nc2ccc(F)cn2c1-c1ccc(C(F)(F)F)cn1 [Compound 353, N-(6-fluoro-3-(5-(trifluoromethyl)pyridin-2-yl)imidazo[1,2-a]pyridin-2-yl)-3,3-dimethylbutanamide] | – | – | +++ (+++ 7-8 animals protected) | EC50 ([1]; FLIPR assay (Table 3)): < 500 nM
14 | CC(C)(C)Cc1c(NC(=O)C2CCCC2)nc2ccc(C(F)(F)F)cn12 [Compound 51, N-(3-neopentyl-6-(trifluoromethyl)imidazo[1,2-a]pyridin-2-yl)cyclopentanecarboxamide] | – | < 500 | ++ (++ 4-6 animals protected) | –
15 | CC(C)(C)CC(=O)Nc1nc2ccc(F)cn2c1-c1nc2ccccc2s1 [Compound 360, N-(3-(benzo[d]thiazol-2-yl)-6-fluoroimidazo[1,2-a]pyridin-2-yl)-3,3-dimethylbutanamide] | – | – | + (+ 2-3 animals protected) | EC50 ([1]; FLIPR assay (Table 3)): < 500 nM
16 | N-(3-cyclopropyl-6-(trifluoromethyl)imidazo[1,2-b]pyridazin-2-yl)-4,4,4-trifluoro-3,3-dimethylbutanamide [Compound 436] | 500 to 3000 | – | – | ED50 (mpk) ([2]; rat MES dose-response, oral): 0.7 mpk
17 | CC(C)(C)CC(=O)Nc1nc2ccc(F)cn2c1-c1ccc(C(F)(F)F)cc1 [Compound 128, N-(6-fluoro-3-(4-(trifluoromethyl)phenyl)imidazo[1,2-a]pyridin-2-yl)-3,3-dimethylbutanamide] | – | – | +++ (+++ 7-8 animals protected) | EC50 ([1]; FLIPR assay, Table 2): < 500 nM

More lines, main results first:

Row | EC50 ([1]; FLIPR assay (Table 6)) [nM] | EC50 ([1]; FLIPR assay, Table 1) [nM] | Compound | Rat MES activity ([2]; oral) | also measured
18 | 500 to 3000 | – | CC(C)(C(=O)Nc1nc2ccc(C(F)(F)F)nn2c1C1CC1)C(F)(F)F [Compound 435, N-(3-cyclopropyl-6-(trifluoromethyl)imidazo[1,2-b]pyridazin-2-yl)-3,3,3-trifluoro-2,2-dimethylpropanamide] | +++ (+++ 7-8 animals protected) | –
19 | < 500 | – | CC(C)(CC(=O)Nc1nc2ccc(F)cn2c1C1CCC1)C(F)(F)F [Compound 446, N-(3-cyclobutyl-6-fluoroimidazo[1,2-a]pyridin-2-yl)-4,4,4-trifluoro-3,3-dimethylbutanamide] | +++ (+++ 7-8 animals protected) | –
20 | < 500 | – | CC(C)(CC(=O)Nc1nc2ccc(C(F)(F)F)nn2c1C1CCC1)C(F)(F)F [Compound 439, N-(3-cyclobutyl-6-(trifluoromethyl)imidazo[1,2-b]pyridazin-2-yl)-4,4,4-trifluoro-3,3-dimethylbutanamide] | +++ (+++ 7-8 animals protected) | ED50 ([2]; rat MES dose-response): 0.47 mg/kg
21 | 500 to 3000 | – | CC(C)(C(=O)Nc1nc2ccc(C(F)(F)F)cn2c1C1CC1)C(F)(F)F [Compound 429, N-(3-cyclopropyl-6-(trifluoromethyl)imidazo[1,2-a]pyridin-2-yl)-3,3,3-trifluoro-2,2-dimethylpropanamide] | +++ (+++ 7-8 animals protected) | ED50 ([2]; rat MES dose-response): 3.4 mg/kg
22 | 500 to 3000 | – | O=C(Nc1nc2ccc(C(F)(F)F)nn2c1C1CC1)c1ccc(F)c(F)c1 [Compound 434, N-(3-cyclopropyl-6-(trifluoromethyl)imidazo[1,2-b]pyridazin-2-yl)-3,4-difluorobenzamide] | ++ (++ 4-6 animals protected) | –
23 | 500 to 3000 | – | O=C(Nc1nc2ccc(C(F)(F)F)cn2c1C1CCCC1)c1ccc(F)c(F)c1 [Compound 430, N-(3-cyclopentyl-6-(trifluoromethyl)imidazo[1,2-a]pyridin-2-yl)-3,4-difluorobenzamide] | ++ (++ 4-6 animals protected) | ED50 ([2]; rat MES dose-response): 2.3 mg/kg
